Earlier results, collected in patent publication US6872408B2, “Method of treating bipolar disorders using deuterium-substituted carbonate” (priority 2001, dated 2005).

Tests used:
[1] = test system: patients; settings: patients treated for mania
[2] = test system: biological clock; settings: in vivo
[3] = test system: mice
[4] = test system: mouse
[5] = test system: deer mice; settings: increasing ratio of D2O to H2O in drinking water
[6] = test system: patients with bipolar disorder

Q: Which side effect [1] does the source give for `CCCC(CCC)C(=O)O` [DEPAKOTE, valproic acid] here?
A: frequently causes blood dyscrasias

Q: Which “effect on length of the biological clock” value [2] does the source give for `[2H]O[2H]` [Deuterium oxide] here?
A: lengthen the biological clock

Q: And the “effect on the period and entrainment of the light-dark (LD) cycle” value [3]?
A: chronomutagenic effect

Q: And the spontaneous locomotor activity [4]?
A: suppressed

Q: And the “effect of D2O on the biological clock” value [5]?
A: dose dependent and reversible

Q: For `CCO` [ethanol], which “effect on length of the biological clock” value [2] is on record?
A: lengthen the biological clock

Q: With `[Li]` [lithium] as the compound, how does the “time for effects to take affect” value ([6]; patients with bipolar disorder) read?
A: up to 2 weeks

Q: What about the “patients receiving beneficial effects” value ([6]; patients with bipolar disorder prescribed lithium) of the same compound?
A: up to 80%

Q: For `CC(C)[C@@H]1NC(=O)[C@H](C)OC(=O)[C@@H](C(C)C)NC(=O)[C@@H](C(C)C)OC(=O)[C@H](C(C)C)NC(=O)[C@H](C)OC(=O)[C@@H](C(C)C)NC(=O)[C@@H](C(C)C)OC(=O)[C@H](C(C)C)NC(=O)[C@H](C)OC(=O)[C@@H](C(C)C)NC(=O)[C@@H](C(C)C)OC1=O` [valinomycin], which “effect on length of the biological clock” value [2] is on record?
A: lengthen the biological clock

Q: With lithium salts as the compound, how does the “effect on length of the biological clock” value [2] read?
A: lengthen the biological clock
